Where two headings read alike, the source gives them in different places.
What was measured:
[1] = biological target: T1, human recombinant adrenergic α2A receptor (Homo sapiens, UniProt P08913); experiment: Adrenergic α2A radioligand binding ([3H]MK-912)
T1 construct: expressed in transfected cells; host or cells: insect Sf9 cells
T1 sequence (P08913 1-465): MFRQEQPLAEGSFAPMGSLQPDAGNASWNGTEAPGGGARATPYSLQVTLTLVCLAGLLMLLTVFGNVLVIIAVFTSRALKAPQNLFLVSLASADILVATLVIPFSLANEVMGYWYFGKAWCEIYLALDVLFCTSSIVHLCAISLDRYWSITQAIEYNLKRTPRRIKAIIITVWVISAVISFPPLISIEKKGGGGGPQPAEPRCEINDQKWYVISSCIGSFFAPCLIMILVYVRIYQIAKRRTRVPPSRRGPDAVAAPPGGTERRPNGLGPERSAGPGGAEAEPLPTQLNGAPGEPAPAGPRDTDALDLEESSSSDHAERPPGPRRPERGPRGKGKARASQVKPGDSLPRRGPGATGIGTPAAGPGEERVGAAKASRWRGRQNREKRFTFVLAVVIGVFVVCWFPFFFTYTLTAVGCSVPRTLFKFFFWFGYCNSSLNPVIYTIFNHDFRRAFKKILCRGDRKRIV
Protocol: To evaluate in radioligand binding assays the activity of compounds of the invention, human recombinant adrenergic α2A receptor expressed in insect Sf9 cells (Uhlen S et al. J Pharmacol Exp Ther. 271:1558, 1994) in a modified Tris-HCl buffer (50 mM Tris-HCl, pH 7.4, 12.5 mM MgCl2, 2 mM EDTA) was used. Compounds of invention were incubated with 1 nM [^3H]MK-912 for 60 minutes at 25° C. MK912 is (2S-trans)-1,3,4,5′,6,6′,7,12b-octahydro-1′,3′-dimethyl-spiro[2H-benzofuro[2,3-a]quinolizine-2,4′(1′H)-pyrimidin]-2′(3′H)-one hydrochloride Non-specific binding was estimated in the presence of 10 μM WB-4101 (2-(2,6-Dimethoxyphenoxyethyl)aminomethyl-1,4-benzodioxane hydrochloride). Receptor proteins were filtered and washed, the filters were then counted to determine [^3H]MK-912 specifically bound. Compounds were screened at 1 μM or lower, using 1% DMSO as vehicle. Biochemical assay results are presented as the percent inhibition of specific binding in Table 4.

[2] = biological target: T2, human recombinant adrenergic α2B receptor (Homo sapiens, UniProt P18089); experiment: Adrenergic α2B radioligand binding ([3H]Rauwolscine)
T2 construct: expressed in transfected cells; host or cells: CHO-K1 cells
T2 sequence (P18089 1-450): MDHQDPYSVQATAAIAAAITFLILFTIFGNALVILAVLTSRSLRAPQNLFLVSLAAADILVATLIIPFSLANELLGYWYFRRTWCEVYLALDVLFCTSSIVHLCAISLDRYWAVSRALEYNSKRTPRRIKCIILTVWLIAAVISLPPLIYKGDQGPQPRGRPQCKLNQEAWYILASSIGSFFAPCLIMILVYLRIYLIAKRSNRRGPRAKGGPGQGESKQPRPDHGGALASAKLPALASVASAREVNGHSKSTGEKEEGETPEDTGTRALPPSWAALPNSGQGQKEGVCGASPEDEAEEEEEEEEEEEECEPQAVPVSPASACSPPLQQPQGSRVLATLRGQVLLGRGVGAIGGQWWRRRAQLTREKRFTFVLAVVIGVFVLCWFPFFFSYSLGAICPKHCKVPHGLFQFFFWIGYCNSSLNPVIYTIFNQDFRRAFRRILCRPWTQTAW
Protocol: To evaluate in radioligand binding assays the activity of compounds of the invention, human recombinant adrenergic α2B receptor expressed in Chinese hamster ovary (CHO-K1) cells (Uhlen S et al. Eur J. Pharmacol. 343(1):93, 1998) in a modified Tris-HCl buffer (50 mM Tris-HCl, pH 7.4, 12.5 mM MgCl2, 1 mM EDTA, 0.2% BSA) was used. Compounds of the invention were incubated with 2.5 nM [^3H]Rauwolscine for 60 minutes at 25° C. Non-specific binding was estimated in the presence of 10 μM Prozosin. Receptor proteins were filtered and washed, the filters were then counted to determine [^3H]Rauwolscine specifically bound. Compounds were screened at 1 μM or lower, using 1% DMSO as vehicle. Biochemical assay results are presented as the percent inhibition of specific binding in Table 4.

[3] = biological target: T3, human recombinant dopamine D2L receptor (Homo sapiens, UniProt P14416); experiment: Dopamine D2L radioligand binding ([3H]Spiperone); settings: for inhibition at 3 µM: compound concentration 3 μM
T3 construct: expressed in transfected cells; host or cells: CHO cells
T3 sequence (P14416 whole entry): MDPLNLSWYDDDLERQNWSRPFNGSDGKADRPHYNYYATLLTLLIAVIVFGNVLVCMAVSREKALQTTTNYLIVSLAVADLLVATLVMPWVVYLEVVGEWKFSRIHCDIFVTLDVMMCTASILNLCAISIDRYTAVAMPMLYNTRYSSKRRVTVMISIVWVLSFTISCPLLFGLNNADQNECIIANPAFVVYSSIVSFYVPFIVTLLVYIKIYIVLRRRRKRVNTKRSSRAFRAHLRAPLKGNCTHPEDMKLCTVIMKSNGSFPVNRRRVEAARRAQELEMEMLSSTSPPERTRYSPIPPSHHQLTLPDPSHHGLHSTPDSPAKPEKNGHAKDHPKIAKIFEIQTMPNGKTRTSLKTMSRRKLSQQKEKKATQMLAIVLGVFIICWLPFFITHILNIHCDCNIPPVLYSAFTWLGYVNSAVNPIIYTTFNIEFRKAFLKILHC
In short: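 CHO-expressed receptor in 50 mM Tris-HCl pH 7.4 with ascorbic acid, 0.001% BSA, 150 mM NaCl; 0.16 nM [3H]spiperone, 120 min at 25 °C; nonspecific binding with haloperidol.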

[4] = 1 h, read-out: Percent Inhibition of ligand binding Adrenergic (1 μM ligand conc.) α2A
[5] = compound concentration 1 μM, read-out: Percentage inhibition of ligand binding to Adrenergic α2A receptor
[6] = 1 h, read-out: Percent Inhibition of ligand binding Adrenergic (1 μM ligand conc.) α2B
[7] = compound concentration 1 μM, read-out: Percentage inhibition of ligand binding to Adrenergic α2B receptor
[8] = 2 h, 1 μM ligand conc., read-out: Percent Inhibition of ligand binding Dopamine (1 μM ligand conc.) D2L
[9] = compound concentration 1 μM, read-out: Percentage inhibition of ligand binding to D2L receptor
[10] = read-out: Percentage inhibition of ligand binding to D2L receptor

Row | SMILES | inhibition at 1 µM [1, 4] [%] | inhibition at 1 µM [1, 5] [%] | inhibition at 1 µM [2, 6] [%] | inhibition at 1 µM [2, 7] [%] | inhibition at 1 µM [3, 8] [%] | inhibition at 1 µM [3, 9] [%] | inhibition at 3 µM [3, 10] [%] | inhibition at 10 µM ([3]; compound concentration 10 μM, read-out: Percentage inhibition of ligand binding to D2L receptor) [%]
1 | C/C(=C\n1c2c(c3cc(C)ccc31)CCN(C)C2)c1ccc(F)cc1 [Compound 91, (E)-9-(2-(4-fluorophenyl)prop-1-enyl)-2,6-dimethyl-2,3,4,9-tetrahydro-1H-pyrido[3,4-b]indole] | 95 | 95 | 94 | 94 | 27 | 44 | 64 | 91
2 | CCC1c2c(c3cc(Cl)ccc3n2CCc2ccc(F)cc2)CCN1C (stereo not drawn) [Compound 78] | 93 |  | 102 |  | 11 |  |  | 
3 | CN1CCc2c(n(CCCc3ccccc3)c3ccc(Cl)cc23)C1 [Compound 29, 6-chloro-2,3,4,9-tetrahydro-2-methyl-9-(3-phenylpropyl)-1H-pyrido[3,4-b]indole] | 96 |  | 79 |  | 24 |  |  | 
4 | Cc1ccc(C(O)Cn2c3c(c4cc(C)ccc42)CCN(C)C3)cc1 (stereo not drawn) [Compound 72] | 93 |  | 105 |  | 24 |  |  | 
5 | CCC1c2c(c3cc(Cl)ccc3n2/C=C(\C)c2ccc(Cl)cc2)CCN1C (stereo not drawn) [Compound 100, 6-chloro-9-(2-(4-chlorophenyl)prop-1-enyl)-1-ethyl-2-methyl-2,3,4,9-tetrahydro-1H-pyrido[3,4-b]indole] | 56 |  | 53 |  | -11 |  |  | 
6 | CCC1c2c(c3cc(C)ccc3n2/C=C(\C)c2ccc(Cl)cc2)CCN1C (stereo not drawn) [Compound 160, 9-(2-(4-chlorophenyl)prop-1-enyl)-1-ethyl-2,6-dimethyl-2,3,4,9-tetrahydro-1H-pyrido[3,4-b]indole] | 51 |  | 75 |  | -1 |  |  | 
7 | C/C(=C\n1c2c(c3cc(C)ccc31)CCN(C)C2c1ccccc1)c1ccc(Cl)cc1 (stereo not drawn) [Compound 164, 9-(2-(4-chlorophenyl)prop-1-enyl)-2,6-dimethyl-1-phenyl-2,3,4,9-tetrahydro-1H-pyrido[3,4-b]indole] | 58 |  | 15 |  | -2 |  |  | 
8 | CN1CCc2c(n(CC(=O)N3CCCC3)c3ccc(Cl)cc23)C1 [Compound 40, 2-(6-chloro-1,2,3,4-tetrahydro-2-methylpyrido[3,4-b]indol-9-yl)-1-(pyrrolidin-1-yl)ethanone] | 1 |  | 18 |  | -11 |  |  | 
9 | C/C(=C\n1c2c(c3cc(C)ccc31)CCN(C)C2)c1ccc(Cl)cc1 [Compound 97, 9-(2-(4-chlorophenyl)prop-1-enyl)-2,6-dimethyl-2,3,4,9-tetrahydro-1H-pyrido[3,4-b]indole] | 91 |  | 96 |  | 15 |  |  | 
10 | CN1CCc2c(n(CC(=O)N3CCNCC3)c3ccc(Cl)cc23)C1 [Compound 55, 2-(6-chloro-2-methyl-3,4-dihydro-1H-pyrido[3,4-b]indol-9(2H)-yl)-1-(piperazin-1-yl)ethanone] | 10 |  | -21 |  | -6 |  |  | 
11 | Cc1ccc(CCn2c3c(c4cc(Cl)ccc42)CCN(C)C3C)cn1 (stereo not drawn) [Compound 80] | 82 |  | 100 |  | 5 |  |  | 
12 | CN1CCc2c(n(CC(O)c3ccccc3)c3ccc(Cl)cc23)C1 (stereo not drawn) [Compound 71] | 88 |  | 95 |  | 21 |  |  | 
13 | Cc1ccc2c(c1)c1c(n2/C=C/c2ccccc2)CN(C)CC1 [Compound 92] | 96 | 96 | 104 | 104 | 47 | 47 | 72 | 
14 | CN1CCc2c(n(CC(O)c3ccccc3F)c3ccc(Cl)cc23)C1 (stereo not drawn) [Compound 59, 2-(6-chloro-2-methyl-3,4-dihydro-1H-pyrido[3,4-b]indol-9(2H)-yl)-1-(2-fluorophenyl)ethanol] | 91 |  | 97 |  | 35 |  |  | 
15 | Cc1ccc2c(c1)c1c(n2CC(C)(O)c2ccc(F)cc2)CN(C)CC1 (stereo not drawn) [Compound 61, 1-(2,6-dimethyl-3,4-dihydro-1H-pyrido[3,4-b]indol-9(2H)-yl)-2-(4-fluorophenyl)propan-2-ol] | 83 |  | 101 |  | 41 |  |  | 
16 | CCC1c2c(c3cc(C)ccc3n2C#Cc2ccc(Cl)cc2)CCN1C (stereo not drawn) [Compound 162, 9-((4-chlorophenyl)ethynyl)-1-ethyl-2,6-dimethyl-2,3,4,9-tetrahydro-1H-pyrido[3,4-b]indole] | 76 |  | 85 |  | 4 |  |  | 
17 | CC(C)CCN(C)C(=O)Cn1c2c(c3cc(Cl)ccc31)CCN(C)C2 [Compound 14, 2-(6-chloro-1,2,3,4-tetrahydro-2-methylpyrido[3,4-b]indol-9-yl)-N-isopentyl-N-methylacetamide] | 19 |  | -16 |  | 6 |  |  | 
18 | CCC1c2c(c3cc(Cl)ccc3n2CC(C)(O)c2ccc(F)cc2)CCN1C (stereo not drawn) [Compound 79] | 92 |  | 89 |  | 2 |  |  | 
19 | Cc1ccc2c(c1)c1c(n2CCC(=O)N2CCCCC2)CN(C)CC1 [Compound 43, 3-(1,2,3,4-tetrahydro-2,6-dimethylpyrido[3,4-b]indol-9-yl)-1-(piperidin-1-yl)propan-1-one] | 42 |  | -14 |  | -8 |  |  | 
20 | CC1CCN(C(=O)Cn2c3c(c4cc(Cl)ccc42)CCN(C)C3)CC1 [Compound 38, 2-(6-chloro-1,2,3,4-tetrahydro-2-methylpyrido[3,4-b]indol-9-yl)-1-(4-methylpiperidin-1-vyl)ethanone] | 15 |  | 15 |  | -8 |  |  | 
21 | Cc1ccc2c(c1)c1c(n2CC(O)c2ccccc2)CN(C)CC1 (stereo not drawn) [Compound 67] | 85 |  | 106 |  | 21 |  |  | 
22 | CN1CCc2c(n(CC(=O)NC3CCCCC3)c3ccc(Cl)cc23)C1 [Compound 17, 2-(6-chloro-1,2,3,4-tetrahydro-2-methylpyvrido[3,4-b]indol-9-yl)-N-cyclohexylacetamide] | 17 |  | 14 |  | -3 |  |  | 
23 | CC1c2c(c3cc(Cl)ccc3n2C#Cc2ccc(Cl)cc2)CCN1C (stereo not drawn) [Compound 132, 6-chloro-9-((4-chlorophenyl)ethynyl)-1,2-dimethyl-2,3,4,9-tetrahydro-1H-pyrido[3,4-b]indole] | 13 |  | 84 |  | -6 |  |  | 

Source: patent publication US9260429B2, “Pyrido[3,4-B]indoles and methods of use” (Medivation Technologies, Inc., priority 2008, dated 2016)
